Usually IC50 stands for the point on the concentration scale where inhibition reaches its midpoint.

The structures appear in SMILES notation.

This test deals with T1, human Mnk2a (Homo sapiens, UniProt Q9HBH9).
T1 construct: made in house; host or cells: E. coli BL21 (vector pGEX-4T1)
Briefly: Mnk2a in vitro kinase assay (indirect fluorescence polarization). Format: biochemical. The conditions noted are these: GST-Mnk2a pre-activated with ERK2, 20 μM ATP, 30 μM substrate peptide; read-out: MNK2 IC50. The method, boiled down: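 Indirect competitive fluorescence polarization: kinase-generated phospho-product displaces a fluorophore-labelled phospho-peptide from a phospho-specific antibody. Enzyme is N-terminal GST-Mnk2a from E. coli, activated with pre-activated ERK2 and 50 μM ATP; substrate is an amidated 12-mer peptide around eIF4E Ser209.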

T1 sequence (Q9HBH9 whole entry): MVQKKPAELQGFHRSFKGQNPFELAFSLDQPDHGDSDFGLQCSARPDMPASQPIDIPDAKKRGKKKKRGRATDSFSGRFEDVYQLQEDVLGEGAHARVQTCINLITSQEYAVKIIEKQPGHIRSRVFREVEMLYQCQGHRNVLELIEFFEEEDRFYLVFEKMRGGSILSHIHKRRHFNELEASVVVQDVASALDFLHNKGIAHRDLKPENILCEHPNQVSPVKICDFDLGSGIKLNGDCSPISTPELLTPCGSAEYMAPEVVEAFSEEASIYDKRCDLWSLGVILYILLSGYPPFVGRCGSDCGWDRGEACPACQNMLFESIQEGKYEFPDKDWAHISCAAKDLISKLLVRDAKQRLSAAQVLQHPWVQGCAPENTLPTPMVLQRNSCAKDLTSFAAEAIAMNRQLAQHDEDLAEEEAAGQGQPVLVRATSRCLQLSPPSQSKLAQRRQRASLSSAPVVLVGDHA

With `Cc1c(C(=O)NS(C)(=O)=O)sc2ncnc(Nc3ccc(F)cc3OC3CCOCC3)c12` [Example 235], the 50% inhibitory concentration (IC50) amounted to 12 nM. Consider `Cc1c(C(=O)NCC2(N)CCCC2)sc2ncnc(Nc3ccc(F)cc3OC3CCOCC3)c12` [Example 140], for which the IC50 stood at 92 nM. Consider `Cc1c(C(=O)NCCCN2CCOCC2)sc2ncnc(Nc3ccc(F)cc3OC3CCOCC3)c12` [Example 212], for which the IC50 is 31 nM. For the compound `Cc1c(C(=O)NCc2cnco2)sc2ncnc(Nc3ccc(F)cc3OC3CCOCC3)c12` [Example 186], the IC50 was 30 nM. The value for `Cc1c(C(=O)N[C@H](C)C(=O)O)sc2ncnc(Nc3ccc(F)cc3OC3CCOCC3)c12` [Example 147] was 15 nM; that for `Cc1c(C(N)=O)sc2ncnc(Nc3ccc(F)cc3O[C@@H]3CCCN(Cc4ncon4)C3)c12` [Example 72, 4-[4-Fluoro-2-((R)-1-[1,2,4]oxadiazol-3-ylmethyl-piperidin-3-yloxy)-phenylamino]-5-methyl-thieno[2,3-d]pyrimidine-6-carboxylic acid amide] was 9 nM. Consider `Cc1c(C(=O)NCCCc2ccncc2)sc2ncnc(Nc3ccc(F)cc3OC3CCCNC3)c12` (centres unmarked) [Example 56], for which the IC50 worked out at 49 nM. `Cc1c(C(N)=O)sc2ncnc(Nc3ccc(F)cc3OC3CCN(S(C)(=O)=O)C3)c12` (centres unmarked) [Example 89, 4-[4-Fluoro-2-(1-methanesulfonyl-pyrrolidin-3-yloxy)-phenylamino]-5-methyl-thieno[2,3-d]pyrimidine-6-carboxylic acid amide]: the IC50 was 8 nM. Consider `COCCN1CCC[C@@H](Oc2cc(F)ccc2Nc2ncnc3sc(C(N)=O)c(C)c23)C1` [Example 75], for which the IC50 stood at 22 nM. Regarding `Cc1c(C(=O)NCC2CNC(=O)C2)sc2ncnc(Nc3ccc(F)cc3OC3CCOCC3)c12` (centres unmarked) [Example 199], the IC50 stood at 30 nM. With `Cc1c(C(=O)N(C)CC2CCCCC2)sc2ncnc(Nc3ccc(F)cc3OC3CCCNC3)c12` (centres unmarked) [Example 36], the IC50 came to 790 nM. Regarding `Cc1c(C(=O)NCC2CN(C)CCO2)sc2ncnc(Nc3ccc(F)cc3OC3CCOCC3)c12` (centres unmarked) [Example 116, 4-[4-Fluoro-2-(tetrahydro-pyran-4-yloxy)-phenylamino]-5-methyl-thieno[2,3-d]pyrimidine-6-carboxylic acid (4-methyl-morpholin-2-ylmethyl)-amide trifluoracetate], the IC50 was found to be 22 nM. As to `Cc1c(C(=O)NCC#N)sc2ncnc(Nc3ccc(F)cc3OC3CCOCC3)c12` [Example 164], the IC50 worked out at 27 nM. The value for `Cc1c(C(=O)NCC2CCCCC2)sc2ncnc(Nc3ccc(F)cc3OC3CCCNC3)c12` (centres unmarked) [Example 29] was 53 nM; that for `Cc1c(C(=O)NCCCN2CCCC2)sc2ncnc(Nc3ccc(F)cc3OC3CCOCC3)c12` [Example 118] was 29 nM; that for `Cc1c(C(=O)NCCCN(C)C)sc2ncnc(Nc3ccc(F)cc3O[C@@H]3CCOC3)c12` [Example 103, 4-{4-Fluoro-2-[(R)-(tetrahydro-furan-3-yl)oxy]-phenylamino}-5-methyl-thieno[2,3-d]pyrimidine-6-carboxylic acid (3-dimethylamino-propyl)-amide] was 26 nM. Regarding `Cc1c(C(=O)NCCOC(F)(F)F)sc2ncnc(Nc3ccc(F)cc3OC3CCCNC3)c12` (centres unmarked) [Example 38], the IC50 turned out to be 100 nM. Take `Cc1c(C(=O)NCCCN(C)C)sc2ncnc(Nc3cccnc3O[C@@H]3CCOC3)c12` [Example 268]: the half-maximal inhibitory concentration (IC50) stood at 100 nM. With `Cc1c(C(=O)NCc2ccncc2)sc2ncnc(Nc3ccc(F)cc3OC3CCOCC3)c12` [Example 221], the IC50 turned out to be 38 nM.

On to `Cc1c(C(=O)NCCn2ccnc2)sc2ncnc(Nc3ccc(F)cc3OC3CCOCC3)c12` [Example 151], for which the IC50 is 57 nM.

On to `Cc1c(C(=O)NCC2CCOC2)sc2ncnc(Nc3ccc(F)cc3OC3CCCNC3)c12` (centres unmarked) [Example 24], for which the IC50 worked out at 62 nM. Turning to `Cc1c(C(=O)NCC2CN(C)CCO2)sc2ncnc(Nc3ccc(F)cc3O[C@H]3CCOC3)c12` (some centres unmarked) [Example 110], the IC50 was found to be 21 nM.

As to `Cc1c(C(=O)NCc2ccc(Cl)c(F)c2)sc2ncnc(Nc3ccc(F)cc3OC3CCCNC3)c12` (centres unmarked) [Example 59], the IC50 was 48 nM.

In the case of `Cc1c(C(N)=O)sc2ncnc(Nc3ccc(C#N)cc3O[C@H]3CCCNC3)c12` [Example 67, 4-[4-Cyano-2-((S)-piperidin-3-yloxy)-phenylamino]-5-methyl-thieno[2,3-d]pyrimidine-6-carboxylic acid amide], the IC50 was determined as 46 nM. `CC(=O)N1CC[C@H](Oc2cc(F)ccc2Nc2ncnc3sc(C(N)=O)c(C)c23)C1` [Example 96, 4-[2-((S)-1-Acetyl-pyrrolidin-3-yloxy)-4-fluoro-phenylamino]-5-methyl-thieno[2,3-d]pyrimidine-6-carboxylic acid amide]: the IC50 is 1100 nM. For `CNC(=O)c1sc2ncnc(Nc3ccc(F)cc3O[C@H]3CCCNC3)c2c1C` [Example 11, 4-[4-Fluoro-2-((S)-piperidin-3-yloxy)-phenylamino]-5-methyl-thieno[2,3-d]pyrimidine-6-carboxylic acid methylamide], the IC50 was 39 nM. Take `COC[C@@H]1CCCN1CCCNC(=O)c1sc2ncnc(Nc3ccc(F)cc3OC3CCOCC3)c2c1C` [Example 122]: the IC50 came out at 48 nM. Regarding `Cc1c(C(=O)NCc2ncc[nH]2)sc2ncnc(Nc3ccc(F)cc3OC3CCOCC3)c12` [Example 231], the IC50 worked out at 18 nM. Consider `Cc1c(C(=O)NCCc2cccnc2)sc2ncnc(Nc3ccc(F)cc3OC3CCOCC3)c12` [Example 207], for which the IC50 was determined as 41 nM.

Regarding `CCN1CCC[C@@H]1CNC(=O)c1sc2ncnc(Nc3ccc(F)cc3OC3CCCNC3)c2c1C` (some centres unmarked) [Example 52], the IC50 was determined as 130 nM.

In the case of `Cc1c(C(=O)N2CCCCC2CN2CCOCC2)sc2ncnc(Nc3ccc(F)cc3OC3CCOCC3)c12` (centres unmarked) [Example 252], the IC50 was determined as 8420 nM. On to `Cc1c(C(=O)NC2CCN(C)CC2)sc2ncnc(Nc3ccc(F)cc3OC3CCOCC3)c12` [Example 174], for which the IC50 turned out to be 60 nM. For `Cc1c(C(=O)NCCc2ccccn2)sc2ncnc(Nc3ccc(F)cc3OC3CCOCC3)c12` [Example 206], the IC50 came out at 43 nM. Regarding `Cc1c(C(=O)NCCCN2CCCC2=O)sc2ncnc(Nc3ccc(F)cc3OC3CCOCC3)c12` [Example 131], the concentration for half-maximal inhibition (IC50) turned out to be 35 nM.

For the compound `Cc1c(C(=O)NCCCN2CCC(F)(F)C2)sc2ncnc(Nc3ccc(F)cc3OC3CCOCC3)c12` [Example 124], the IC50 was determined as 31 nM.

`Cc1c(C(=O)NCCC(=O)N(C)C)sc2ncnc(Nc3ccc(F)cc3OC3CCOCC3)c12` [Example 167]: the IC50 came out at 43 nM. The value for `Cc1c(C(=O)NCC(C)(C)CO)sc2ncnc(Nc3ccc(F)cc3OC3CCOCC3)c12` [Example 216] was 54 nM.

As for `Cc1c(C(=O)NCc2nccs2)sc2ncnc(Nc3ccc(F)cc3OC3CCCNC3)c12` (centres unmarked) [Example 31], the IC50 was found to be 43 nM.

As for `Cc1c(C(=O)NCCCN(C)C)sc2ncnc(Nc3ccc(F)cc3O[C@H]3CCCOC3)c12` [Example 87, 4-{4-Fluoro-2-[(S)-(tetrahydro-pyran-3-yl)oxy]-phenylamino}-5-methyl-thieno[2,3-d]pyrimidine-6-carboxylic acid (3-dimethylamino-propyl)-amide], the 50% inhibitory concentration (IC50) was determined as 12 nM.

For `Cc1c(C(=O)NCCCN2CC[C@@H](O)C2)sc2ncnc(Nc3ccc(F)cc3OC3CCOCC3)c12` [Example 249], the IC50 amounted to 21 nM. Regarding `CONC(=O)c1sc2ncnc(Nc3ccc(F)cc3OC3CCN(S(C)(=O)=O)C3)c2c1C` (centres unmarked) [Example 92], the concentration for half-maximal inhibition (IC50) was 45 nM.

The values are drawn from US8648068B2, “Heterocycloalkyl-containing thienopyrimidines for pharmaceutical compositions” (Boehringer Ingelheim International GmbH, priority 2010, dated 2014).
